Entries after “also recorded” stand apart in the source; their conditions may differ.
Key:
[1] = parameters: species or system C57BL/6 mice; settings: in vivo, ip, 200 mg/kg
Experimental: Young adult (9-week old, 25 g) male C57BL/6 mice were purchased from Charles River Laboratories (Montréal, QC, Canada). Animals were housed four per cage under standard conditions with free access to food and water, randomized and handled under the same conditions by one investigator. All experiments were performed in accordance with the Canadian Council on Animal Care and were approved by the Institutional Committee of the Centre Hospitalier de l'Université Laval (CHUL). Throughout the experiment, the health status of all mice included in the study was closely monitored. To clearly identify the active intermediate following cystamine injection, as well as to understand its systemic and cerebral metabolism, a single intraperitoneal (i.p.) injection of cystamine was administered to normal adult C57BL/6 male mice using three different doses: 10, 50, and 200 mg/kg, as determined in prior publications (Tremblay et al. 2006; Gibrat et al. 2010). These doses were ultimately compared with saline injections. Cystamine was dissolved in sterile saline (0.9%) and injected 1, 3, 12, 24 and 48 h before killing. Animals were sacrificed under deep anesthesia with ketamine/xylazine and perfused via intracardiac infusion with 0.1 M phosphate-buffered saline. […]

[2] = Plasma and brain metabolite levels by HPLC after a single i.p. cystamine injection (dose-response study); assay type: in vivo, C57BL/6 mice
Experimental: Young adult (9-week old, 25 g) male C57BL/6 mice were purchased from Charles River Laboratories (Montréal, QC, Canada). Animals were housed four per cage under standard conditions with free access to food and water, randomized and handled under the same conditions by one investigator. All experiments were performed in accordance with the Canadian Council on Animal Care and were approved by the Institutional Committee of the Centre Hospitalier de l'Université Laval (CHUL). Throughout the experiment, the health status of all mice included in the study was closely monitored. To clearly identify the active intermediate following cystamine injection, as well as to understand its systemic and cerebral metabolism, a single intraperitoneal (i.p.) injection of cystamine was administered to normal adult C57BL/6 male mice using three different doses: 10, 50, and 200 mg/kg, as determined in prior publications (Tremblay et al. 2006; Gibrat et al. 2010). These doses were ultimately compared with saline injections. Cystamine was dissolved in sterile saline (0.9%) and injected 1, 3, 12, 24 and 48 h before killing. Animals were sacrificed under deep anesthesia with ketamine/xylazine and perfused via intracardiac infusion with 0.1 M phosphate-buffered saline. After intracardiac perfusion, brains were collected, snap-frozen in 2-methyl-butane and then stored at −80° C. until cryostat dissection for HPLC analyses. A total of 200 mice were assigned to this study (n=10 per group).
HPLC coupled to fluorescence detection was used in cysteine and cysteamine quantification of both sets of experiments: the dose-response study and in situ cerebral perfusion (ISCP) procedures. Frontal cortex were homogenized in 200 μL of NaHCO3 and then centrifuged at 15 700 g (4° C.) for 20 min. Fifty μl of supernatant were directly derivatized with 30 μL of 4-fluoro-7-sulfamoylbenzo-furazan (ABD-F) reagent. The alkylation reaction was completed at 55° C. for 15 min and stopped with 4.9 μL HCl 12 N. After a 10-min centrifugation at 7500 g (4° C.), the supernatant were immediately injected into the chromatograph consisting of a Waters 717 plus autosampler automatic injector set at 4° C., a Waters 1525 binary pump equipped with an Atlantis dC18 ([…]; 3.9×150 mm) column, and a Waters 2487 Dual Absorbance detector (Waters limited, Lachine, QC, Canada). The excitation was set at 385 nm and emission at 515 nm. The mobile phase, which consisted in 2.5% methanol and 0.1 M ammonium acetate adjusted at pH 4.0, was delivered at 1 mL/min (Santa et al. 2006). Peaks were identified and quantified using Breeze software (Waters limited). HPLC quantifications were normalized to protein concentrations. Protein measurements were determined with a bicinchoninic acid protein assay kit (Pierce, Rockford, Ill., USA) as described by the manufacturer's protocol.
Taurine and hypotaurine were measured by HPLC coupled with UV detection. Supernatant from NaHCO3 brain (bregma 1.54 to −0.58 mm) extracts (see section above for details) were directly derivatized with the reagent dansyl chloride (Sigma-Aldrich, St. Louis, Mo., USA) based on modified published methods (Saller and Czupryna 1989; Calon et al. 1999). Briefly, 50 μL of dansyl chloride (1.2 mg/mL) and 50 μL of sample or standard solution were mixed and then incubated for 30 min at 90° C. After a 10-min centrifugation at 7500 g (4° C.), supernatants were immediately injected into the chromatograph described above. Absorbance was set at 337 nm and the sensitivity at 0.5 absorbance unit full scale. […] Results were obtained using the same method as described above.

[3] = single i.p. cystamine 10, 50 or 200 mg/kg
[4] = single i.p. cystamine 10, 50 or 200 mg/kg, 1-48 h

duration of hypothermia and somnolence signs ([1]; male, C57BL/6, mouse): approximately 2 h | plasma cysteamine level ([2]; cystamine-treated mice, single i.p. dose): undetectable | brain cysteamine level ([2]; single i.p. cystamine 200 mg/kg, 1 h post-injection, vs saline): significant increase | brain hypotaurine level [2, 4]: no significant alteration | brain taurine level [2, 4]: no significant alteration | brain cysteamine level ([2]; single i.p. cystamine, all three doses (10, 50, 200 mg/kg), each time point): marked increased in brain cysteamine | plasma cysteine level ([2]; single i.p. cystamine, up to 200 mg/kg (data not shown)): did not affect | brain cysteine level ([2]; single i.p. cystamine, up to 200 mg/kg, all time points): did not affect; also recorded: stable
Compound: NCCSSCCN [cystamine, Cystamine]
clinical signs ([1]; mouse): signs of hypothermia (shivering) and somnolence (closing of eyelids) | brain cysteamine level ([2]; single i.p. cystamine 50 mg/kg, 1 h post-injection, vs saline): significant increases; also recorded: significantly increased | plasma hypotaurine level [2, 3]: remained under or close to the detection threshold | plasma taurine level [2, 3]: remained under or close to the detection threshold | brain cysteamine level ([2]; single i.p. cystamine (200 mg/kg per FIG. 7), 3 h post-injection, vs saline): remained significantly elevated; also recorded: significant increase

Reference: US20140073694A1, “CYSTAMINE ANALOGUES FOR THE TREATMENT OF PARKINSON'S DISEASE” (UNIVERSITE LAVAL, priority 2011, published 2014)
